# Results taken from patent US20250170050A1, “Use of Nordic plant-based ingredients for supporting a healthy skin microbiome” (Lumene Oy, priority 2022, published 2025).
# Tested on: Cutibacterium acnes
# Assay: In vitro growth of C. acnes by OD at 600 nm in kinetic for 49 hours, anaerobic
# Assay type: cell-based
# Details: oat xylitol alone
# Protocol: In the present study, the effects of 4 compounds and 5 combinations were evaluated on the growth of two bacterial strains: Staphylococcus epidermidis (S. epidermidis) and Cutibacterium acnes (C. acnes). The bacterial strains were grown individually, and the growth of each bacterial strain was determined in presence of the compounds or combinations by optical density (OD) measurement at 600 nm in kinetic for 24 hours for S. epidermidis strain and for 49 hours for C. acnes strain to determine a bacterial growth curve. To determine the effect of the test compounds and combinations on the growth of bacteria, bacterial suspensions were transferred in a 96-well plate containing the compounds, the combinations or glucose tested at 0.1% and 1%. Bacterial cultures were incubated at 37° C. under agitation and under anaerobic condition for C. acnes strain. All experimental conditions were performed in n=3. Optical densities at 600 nm (OD600 nm) were then read in kinetic for 24 hours for S. epidermidis strain and 49 hours for C. acnes strain using a microplate spectrophotometer (EPOCH2, BioTek Instruments). Raw data were analysed using GraphPad PRISM software (growth curves).
structure (smiles),measurement,value
OC[C@@H](O)[C@H](O)[C@@H](O)CO [Xylitol],growth of C. acnes,inhibits
